Reference: ChEMBL document CHEMBL5126579, “Design and synthesis of efficient fluororethylene-peptidomimetic inhibitors of dipeptidyl peptidase III (DPP3)” (Bioorg Med Chem, 2022)

Columns and labels:
Dipeptidyl peptidase 3 [1] = target: T1, Dipeptidyl peptidase 3 (Homo sapiens, UniProt Q9NY33); test: Inhibition of human DPP3 using Arg-Arg-2-naphthylamide as substrate assessed as reduction in release of 2-naphthylamine preincubated for 10 mins followed by substrate addition and measured for 30 mins by fluorescence based analysis
T1 sequence (Q9NY33 whole entry): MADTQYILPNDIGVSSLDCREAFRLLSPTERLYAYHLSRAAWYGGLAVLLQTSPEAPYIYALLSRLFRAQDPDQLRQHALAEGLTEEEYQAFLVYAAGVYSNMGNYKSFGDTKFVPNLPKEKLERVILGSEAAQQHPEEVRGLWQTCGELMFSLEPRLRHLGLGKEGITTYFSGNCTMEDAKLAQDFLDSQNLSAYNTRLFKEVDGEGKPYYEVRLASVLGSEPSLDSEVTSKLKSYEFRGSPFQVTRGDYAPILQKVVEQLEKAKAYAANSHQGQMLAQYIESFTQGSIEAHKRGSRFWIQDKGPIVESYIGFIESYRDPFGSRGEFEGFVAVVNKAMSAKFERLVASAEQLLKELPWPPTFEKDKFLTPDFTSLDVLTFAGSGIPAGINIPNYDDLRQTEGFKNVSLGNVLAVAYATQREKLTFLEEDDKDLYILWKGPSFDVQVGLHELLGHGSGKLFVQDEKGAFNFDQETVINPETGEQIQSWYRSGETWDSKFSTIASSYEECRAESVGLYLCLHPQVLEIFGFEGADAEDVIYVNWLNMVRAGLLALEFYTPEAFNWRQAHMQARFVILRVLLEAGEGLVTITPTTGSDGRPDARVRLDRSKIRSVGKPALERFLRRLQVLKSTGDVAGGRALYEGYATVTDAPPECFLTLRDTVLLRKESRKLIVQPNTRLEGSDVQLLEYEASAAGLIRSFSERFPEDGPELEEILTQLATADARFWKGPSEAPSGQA

Dipeptidyl peptidase 3 [2] = target: T1, Dipeptidyl peptidase 3; test: Inhibition of DPP3 (unknown origin)
Dipeptidyl peptidase 3 [3] = target: T1, Dipeptidyl peptidase 3; test: Competitive inhibition of DPP3 (unknown origin) using Arg-Arg-2-naphthylamide as substrate

Compound | IC50 (Dipeptidyl peptidase 3 [1]) [µM] | also measured
CC(C)[C@H](N)C(=O)N[C@H](/C(F)=C/[C@@H](Cc1ccccc1)C(=O)N1CCCC[C@H]1C(=O)N[C@@H](Cc1c[nH]c2ccccc12)C(=O)O)C(C)C | 7.7 | 
CC(C)[C@H](NC(=O)[C@@H](N)C(C)(C)C)/C(F)=C/[C@@H](Cc1ccccc1)C(=O)N1CCCC[C@H]1C(=O)N[C@@H](Cc1c[nH]c2ccccc12)C(=O)O | 21 | 
CC(C)[C@H](N)C(=O)N[C@@H](C(C)C)[C@H](O)N[C@@H](Cc1ccccc1)C(=O)N1CCC[C@H]1C(=O)N[C@@H](Cc1c[nH]c2ccccc12)C(=O)O |  | IC50 (Dipeptidyl peptidase 3 [2]): 8.5 µM
Cc1cc(=O)c2c(cc(O)c3c4c(O)cccc4c(=O)c32)c1=O |  | IC50 (Dipeptidyl peptidase 3 [3]): 1.44 µM
CC1C(=O)c2cc(O)c3c(c2C(O)C1O)C(=O)c1cccc(O)c1-3 (stereo not drawn) |  | IC50 (Dipeptidyl peptidase 3 [3]): 74 µM
CC(C)[C@H](N)C(=O)N[C@H](/C(F)=N/[C@@H](Cc1ccccc1)C(=O)N1CCC[C@H]1C(=O)N[C@@H](Cc1c[nH]c2ccccc12)C(=O)O)C(C)C | 4.6 | 
H-VVFPW-OH |  | IC50 (Dipeptidyl peptidase 3 [2]): 0.13 µM
CC(C)[C@H](NC(=O)[C@@H](N)C(C)(C)C)/C(F)=C/[C@@H](Cc1ccccc1)C(=O)N1CCC[C@H]1C(=O)N[C@@H](Cc1c[nH]c2ccccc12)C(=O)O | 22.5 | 
